We go through one molecule from patent US7943314B2, “Methods of detecting viability-associated molecules” (ISEAO Technologies Limited, priority 2005, dated 2011).

For assay [1], the system named is methicillin resistant strain of Staphylococcus aureus (MRSA clinical isolate). Description: ATP assay (ligase/quantitative PCR) of Staphylococcus aureus susceptibility to antibiotic, MRSA strain. To be noted: grown 3 hours at 37° C. with 60 μg/ml oxacillin; FIG. 8. Type of assay: cell-based. The procedure:
(§1) • 1. A bacterial culture of a clinical isolate of a MRSA and antibiotic sensitive strain of Staphylococcus aureus strain were prepared in Nutrient media (Lab M, UK) and grown to stationary phase at 37° C. overnight. • 2. The following day, a hundred-fold dilution of the bacterial cultures were prepared in the same media with 1 μl alkaline phosphatase (10 units, New England Biolabs) with and without 60 μg/ml oxacillin and grown for 3 hours at 37° C. • 3. For the quantitation of ATP, 10 μl of each 0 (10 μl culture removed and treated at time 0 min) and 3 hour culture were added to 2.5 μl of 1M NaOH, 1% (v/v) Triton X-100 and incubated for 5 min before neutralisation with 25 μl of 0.1M HCL. 4. 100 μl of ligase buffer was then added followed by 5 μl ligase/DNA substrate paramagnetic beads (prepared as described in Example 2 above). • 5. After incubation at 8° C. for 60 min, the beads were collected using a magnet and resuspended in 20 μl ligase buffer. • 6. After heating at 95° C. for 5 min, 2 μl of the eluted ligated product was quantitated by PCR. • 7. The quantitative PCR was performed as described previously. Results
There is growth and an increase of ATP observed after 3 hr in the absence of antibiotic compared to the zero time point. […] The organism is not sensitive to this antibiotic and continues to grow and produce ATP in the presence of this antibiotic.

For assay [2], the system named is methicillin sensitive strain of Staphylococcus aureus (clinical isolate). Put plainly: ATP assay (ligase/quantitative PCR) of Staphylococcus aureus susceptibility to antibiotic, sensitive strain. It is filed as cell-based. To be noted: grown 3 hours at 37° C. with 60 μg/ml oxacillin; FIG. 7. The protocol: as §1
There is growth and an increase of ATP observed after 3 hr compared to the zero time point. This growth and increase in ATP is not observed when the organism is grown in the presence of oxacillin. […]

Turning to `Cc1onc(-c2ccccc2)c1C(=O)N[C@@H]1C(=O)N2[C@@H]1SC(C)(C)[C@@H]2C(=O)O` [oxacillin], the “growth and increase in ATP after 3 hr compared to the zero time point” value in assay [1] was “reduced but not abrogated”; in assay [2], “not observed”.
